Measurements as given in patent publication US10647654B2, “Glucose transport inhibitors and methods of using same” (OHIO UNIVERSITY, priority 2016, dated 2020).

Assays:
Format in all cases: cell-based
[1] = system: A549 cells; assay: MTT cell proliferation assay in A549 lung cancer cells; conditions: Homo sapiens, DMSO treated cells as negative control, read-out: Cell Growth Inhibition in A549 Cells (at 30 μM)
Protocol: (§1) Compounds EKB-1, EKB-2, EKB-3, EKB-4, JDB-1, and JDB-2 were assayed for their ability to inhibit glucose uptake and cell growth in A549 lung cancer cell lines. A standard glucose uptake assay may be used to evaluate glucose uptake inhibition, and an MTT cell proliferation assay may be used to evaluate cancer cell growth inhibition. […] DMSO treated cells served as the negative control. […] Again, DMSO treated cells served as the negative control.

[2] = system: basal glucose transport in A549 cells; assay: standard glucose uptake assay in A549 lung cancer cells; conditions: Homo sapiens, DMSO treated cells as negative control
Protocol: as §1

[3] = system: basal glucose transport in H1299 cells; assay: standard glucose uptake assay in H1299 lung cancer cells; conditions: Homo sapiens, NCI-H1299, DMSO treated cells as negative control
Protocol: (§2) Compounds EKB-3 and EKB-4 were assayed for their ability to inhibit glucose uptake and cell growth in H1299 lung cancer cell lines. A standard glucose uptake assay may be used to evaluate glucose uptake inhibition, and an MTT cell proliferation assay may be used to evaluate cancer cell growth inhibition. […] DMSO treated cells served as the negative control. […] Again, DMSO treated cells served as the negative control. The glucose uptake inhibition and cell growth inhibition of comparative compound WZB-134 in H1299 cells is also provided in Table 2.

[4] = system: H1299 cells; assay: MTT cell proliferation assay in H1299 lung cancer cells; conditions: Homo sapiens, NCI-H1299, DMSO treated cells as negative control, read-out: Cell Growth Inhibition in H1299 Cells (at 30 μM)
Protocol: as §2

SMILES	inhibition at 30 µM [1]	inhibition at 30 µM [2]	inhibition at 30 µM [3]	inhibition at 30 µM [4]
COC(=O)C(Oc1cc(Cl)ccc1OCc1cccc(O)c1)c1cccc(O)c1 (stereo not shown) [EKB-1]	62.2%	54.3%		
COC(=O)C(Oc1ccc(Cl)cc1OCc1cccc(O)c1)c1cccc(O)c1 (stereo not shown) [EKB-2]	51.5%	56.1%		
OCC(Oc1ccc(Cl)cc1OCc1cccc(O)c1)c1cccc(O)c1 (stereo not shown) [EKB-3]	55.5%	62.8%	90.5%	54%
COC(=O)C(Oc1cc(Cl)ccc1OCc1cccc(O)c1)c1cccc(OC)c1 (stereo not shown) [JDB-1]	24.6%	19.7%		
COc1cccc(C(CO)Oc2cc(Cl)ccc2OCc2cccc(O)c2)c1 (stereo not shown) [JDB-2]	39.7%	34.8%		
Oc1cccc(COc2cccc(F)c2OCc2cccc(O)c2)c1 [WZB-134, reference compound]	10%	96%	92.5%	10.6%
